The record followed here is patent publication US11103493B2, “Substituted pyridinyl compounds as indoleamine 2,3-dioxygenase (IDO) inhibitors” (Merck Sharp & Dohme Corp., priority 2017, dated 2021).

Experiment [1] addresses T1, IDO1 (Homo sapiens, UniProt P14902). Briefly: IDO1 Cellular Assay in HeLa Cells Stimulated with IFNγ. The settings on record: IFNγ 100 ng/mL, 300 uM L-tryptophan, about 48 hours incubation, fluorescence readout, read-out: IDO1 HeLa Cell Assay, IC50. Type of experiment: cell-based. On the procedure:
IDO1 Cellular Assay in HeLa Cells Stimulated with IFNγ
HeLa cells were cultured in complete HeLa culture medium (90% EMEM, 10% heat-inactivated fetal bovine serum) and expanded to about 1×10^9 cells. The cells were then collected and frozen down at 1×10^7 cells/vial in 1 mL frozen medium (90% complete HeLa culture medium, 10% DMSO).
Compounds to be tested were serially diluted in ten 3-fold steps in DMSO starting from 10 mM DMSO stocks in Echo low volume plate(s).
Frozen HeLa cells were thawed and transferred into HeLa assay medium (99% complete HeLa culture medium, 1% Pen/Strep) with 20 mL medium/vial of cells. The cells were spun down at 250 g in a table top centrifuge for 5 min and suspended in same volume of HeLa assay medium. The cells were then counted and adjusted to a density of 2×10^5 cells/mL in HeLa assay medium. Sterile L-tryptophan were added to the cells with final concentration of 300 uM L-tryptophan. A small aliquot (2 mL/plate) of HeLa cells were set aside and were not treated with IFNγ, to serve as the Max-E control.
HeLa cells with and without IFNγ were dispensed to the respective wells of 384-well assay plates containing the compounds. The plates were incubated for about 48 hours at a 37° C., 5% CO2 incubator. Afterwards, 12 μL of 0.5 M methyl isonipecotate in dimethyl sulfoxide were added into each well and the plates were sealed and incubated at 37° C. without CO2 overnight. The plates were centrifuged for 1 min at 200×g. The resulting fluorescence was measured in a Spectramax plate reader (Molecular Devices) with a 400 nm excitation filter and a 510 nm emission filter.
Potencies were calculated by […] least squares fit to the four parameter logistic IC50 equation.

In experiment [2] the target is T1, IDO1. Description: IDO1 Human Whole Blood Assay. It counts as cell-based. The settings on record: LPS and IFNγ 100 ng/mL, 18 h, kynurenine by LC/MS/MS. On the procedure: IDO1 Human Whole Blood Assay
Compounds to be tested were serially diluted in ten 3-fold steps in DMSO starting from 10 mM. 3 μL of compound dilutions or DMSO alone were then dispensed from the dilution plate into a polypropylene 96-well assay plate containing 97 μL of RPMI medium using an Echo 555 acoustic liquid handler (Labcyte). LPS and IFNγ was prepared in RPMI medium to a 10× of final conc. (1000 ng/mL), final concentration is 100 ng/mL.
Human whole blood was drawn in sodium heparin coated tubes from healthy internal donors. 240 μL of blood was transferred to each of the wells of a v-bottom 96 well plate. 30 μL of compound was transferred from intermediate dilution plate, and incubated for 15 min. 30 μL from stimulants was then transferred to blood and mixed thoroughly. Plate was covered with breathable membrane and incubated at 37° C. for overnight (18 h).
On day 2, isotope labeled standard solutions of kunurenine and tryptophan was made in water at 10× concentration and 30 μL was added to the blood at […] concentration. The assay plates were centrifuged at 300×G for 10 min with no brake to separate plasma from red blood cells. 60 μL of plasma samples was removed without disturbing red blood cells. Plasma was diluted with RPMI in 1:1 ratio and proteins were precipitated out with two volumes of Acetonitrile. The plates were centrifuged at 4000×G for 60 min. 20 μL of supernatant was carefully transferred to a 384 well plate containing 40 μL of 0.1% formic acid in water and analyzed by LC/MS/MS.
LC/MS/MS analyses were performed using Thermo Fisher's LX4-TSQ Quantum Ultra system. This system consists of four Agilent binary high-performance liquid chromatography (HPLC) pumps and a TSQ Quantum Ultra triple quadrupole MS/MS instrument. For each sample, 5 μL were injected onto an Atlantis T3 column (2.1 mm×150 mm, 3 μm particle size) from Waters. The mobile phase gradient pumped at 0.8 mL/min was used to elute the analytes from the column at 25° C. The elution started at 0% B increasing linearly to 25% B at 6.5 min, holding at 25% for 1 min, re-equilibrating to 10 min. Mobile phase A consisted of 0.1% formic acid in water. Mobile phase B consisted of 0.1% of formic acid in acetonitrile. Data was acquired in positive mode using a HESI interface. The operational parameters for the TSQ Quantum Ultra instrument were a spray voltage of 4000 V, capillary temperature of 380° C., vaporizer temperature 400° C., shealth gas 60 arbitrary units, Aux gas 20 arbitrary units, tube lens 85 and collision gas 1.2 mTorr. SRM chromatograms of kynurenine (QI: 209.2>Q3:94.0) and internal standard (QI: 215.3>Q3:98.2) were collected for 90 sec. The peak area was integrated by Xcalibur Quan software. The ratios between the kynurenine generated in the reaction and 2D6-Kynurenine spiked-in internal standard were used to generate percentage inhibition and IC50 values. Compounds were titrated and IC50's were calculated by 4 parameter sigmoidal curve fitting formula.

Structures are written as SMILES.

T1 sequence (P14902 whole entry): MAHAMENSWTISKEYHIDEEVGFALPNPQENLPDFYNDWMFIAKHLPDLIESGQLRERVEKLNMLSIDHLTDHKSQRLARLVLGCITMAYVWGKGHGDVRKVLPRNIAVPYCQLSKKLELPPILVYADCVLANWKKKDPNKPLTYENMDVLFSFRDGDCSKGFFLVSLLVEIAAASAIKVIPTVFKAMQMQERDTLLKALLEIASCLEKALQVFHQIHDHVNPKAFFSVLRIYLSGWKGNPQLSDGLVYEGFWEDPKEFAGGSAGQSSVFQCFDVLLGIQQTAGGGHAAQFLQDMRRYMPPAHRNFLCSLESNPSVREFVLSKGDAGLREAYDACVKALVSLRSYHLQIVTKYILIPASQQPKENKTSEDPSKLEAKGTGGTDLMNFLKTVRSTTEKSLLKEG

Regarding `O=C(Nc1ccc(C2(c3nc4cccc(CO)c4[nH]3)CCC2)cn1)c1cccc(Cl)c1` [Ex. 24, 3-chloro-N-(5-{1-[7-(hydroxymethyl)-1H-benzimidazol-2-yl]cyclobutyl}pyridin-2-yl)benzamide], the IC50 was 6.65 nM on IDO1 [1] and 826 nM on IDO1 [2].
As for `N#Cc1cccc(C(=O)Nc2ccc(C3(c4nc5cc(C(F)(F)F)cnc5[nH]4)CCC3)cn2)c1` [Ex. 28, 3-cyano-N-(5-{1-[6-(trifluoromethyl)-3H-imidazo[4,5-b]pyridin-2-yl]cyclobutyl}pyridin-2-yl)benzamide], the IC50 at IDO1 [1] worked out at 23.5 nM; against IDO1 [2], 2290 nM.
Consider `N#Cc1cccc(C(=O)Nc2ccc(C3(c4nc5cc(Cl)ccc5[nH]4)CCC3)cn2)c1` [Ex. 30, N-(5-[1-(5-chloro-1H-benzimidazol-2-yl)cyclobutyl]pyridin-2-yl}-3-cyanobenzamide], for which the values for the IC50 at IDO1 [1] and against IDO1 [2] were 6.58 nM and 312 nM, respectively.
As for `CO[C@H](c1ccc(NC(=O)c2cccc(C#N)c2)nc1)c1nc2cc(C(F)(F)F)cnc2[nH]1` [Ex. 41, (R)-3-cyano-N-(5-(methoxy(6-(trifluoromethyl)-3H-imidazo[4,5-b]pyridin-2-yl)methyl)pyridin-2-yl)benzamide], the IC50 on IDO1 [1] is 263 nM.
The same measure, in the same setting: as for `CO[C@@H](c1ccc(NC(=O)c2cccc(C#N)c2)nc1)c1nc2cc(C(F)(F)F)cnc2[nH]1` [Ex. 40, (S)-3-cyano-N-(5-(methoxy(6-(trifluoromethyl)-3H-imidazo[4,5-b]pyridin-2-yl)methyl)pyridin-2-yl)benzamide], the figure is 94.8 nM.
As to `Cc1cccc2nc(C3(c4ccc(NC(=O)c5cccc(Cl)c5)nc4)CCC3)[nH]c12` [Ex. 11, 3-chloro-N-{5-[1-(7-methyl-1H-benzimidazol-2-yl)cyclobutyl]pyridin-2-yl}benzamide], the IC50 at IDO1 [1] came to 10.2 nM.
Turning to `O=C(Nc1ccc(C2(c3nc4cc(-n5cnnn5)ccc4[nH]3)CCC2)cn1)c1cccc(Cl)c1` [Ex. 20, 3-chloro-N-(5-{1-[5-(1H-tetrazol-1-yl)-1H-benzimidazol-2-yl]cyclobutyl}pyridin-2-yl)benzamide], the IC50 at IDO1 [1] came out at 262 nM.
Consider `COC(c1ccc(NC(=O)c2cccc(C#N)c2)nc1)c1nc2cc(C(F)(F)F)cnc2[nH]1` (stereo not drawn) [Ex. 39, 3-Cyano-N-(5-(methoxy(6-(trifluoromethyl)-3H-imidazo[4,5-b]pyridin-2-yl)methyl)pyridin-2-yl)benzamide], for which the IC50 on IDO1 [1] came to 121 nM.
The same measure, in the same setting: for `Cc1cc2nc(C3(c4ccc(NC(=O)c5cccc(Cl)c5)nc4)CCC3)[nH]c2cc1C` [Ex. 26, 3-chloro-N-{5-[1-(5,6-dimethyl-1H-benzimidazol-2-yl)cyclobutyl]pyridin-2-yl}benzamide] the value was 9.66 nM; for `O=C(Nc1ccc(C2(c3nc4ccccc4n3CCO)CCC2)cn1)c1cccc(Cl)c1` [Ex. 31, 3-Chloro-N-(5-(1-(1-(2-hydroxyethyl)-1H-benzo[d]imidazol-2-yl)cyclobutyl)pyridin-2-yl)benzamide], 200 nM; for `N#Cc1cccc(C(=O)Nc2ccc([C@H](O)c3nc4cc(C(F)(F)F)cnc4[nH]3)cn2)c1` [Ex. 43, (S)-3-cyano-N-(5-(hydroxy(6-(trifluoromethyl)-3H-imidazo[4,5-b]pyridin-2-yl)methyl)pyridin-2-yl)benzamide], 3860 nM.
Consider `COc1cccc2[nH]c(C3(c4ccc(NC(=O)c5cccc(Cl)c5)nc4)CCC3)nc12` [Ex. 15, 3-chloro-N-{5-[1-(4-methoxy-1H-benzimidazol-2-yl)cyclobutyl]pyridin-2-yl}benzamide], for which the IC50 at IDO1 [1] was 10.1 nM.
As for `N#Cc1cccc(C(=O)Nc2ccc(C3(c4nc5cccc(C(=O)O)c5[nH]4)CCC3)cn2)c1` [Ex. 36, 2-(1-(6-(3-Cyanobenzamido)pyridin-3-yl)cyclobutyl)-1H-benzo[d]imidazole-7-carboxylic acid], the IC50 on IDO1 [1] is 10000 nM.
With `O=C1COc2cc3[nH]c(C4(c5ccc(NC(=O)c6cccc(Cl)c6)nc5)CCC4)nc3cc2N1` [Ex. 18, 3-chloro-N-{5-[1-(7-oxo-3,6,7,8-tetrahydroimidazo[4,5-g][1,4]benzoxazin-2-yl)cyclobutyl]pyridin-2-yl}benzamide], the IC50 on IDO1 [1] amounted to 132 nM.
With `N#Cc1cccc(C(=O)Nc2ccc(C3(c4nc5cc(C#N)cnc5[nH]4)CCC3)cn2)c1` [Ex. 29, 3-cyano-N-{5-[1-(6-cyano-3H-imidazo[4,5-b]pyridin-2-yl)cyclobutyl]pyridin-2-yl}benzamide], the half-inhibitory concentration (IC50) on IDO1 [1] came out at 46 nM.
The same measure, in the same setting: as for `CC(C)(C)c1ccc2nc(C3(c4ccc(NC(=O)c5cccc(Cl)c5)nc4)CCC3)[nH]c2c1` [Ex. 12, N-{5-[1-(6-tert-butyl-1H-benzimidazol-2-yl)cyclobutyl]pyridin-2-yl}-3-chlorobenzamide], the figure is 433 nM; as for `N#Cc1cccc(C(=O)Nc2ccc([C@@H](O)c3nc4cc(C(F)(F)F)cnc4[nH]3)cn2)c1` [Ex. 44, (R)-3-cyano-N-(5-(hydroxy(6-(trifluoromethyl)-3H-imidazo[4,5-b]pyridin-2-yl)methyl)pyridin-2-yl)benzamide], 6220 nM; as for `O=C(Nc1ccc(C2(c3nc4ccc(OC(F)(F)F)cc4[nH]3)CCC2)cn1)c1cccc(Cl)c1` [Ex. 22, 3-chloro-N-(5-{1-[6-(trifluoromethoxy)-1H-benzimidazol-2-yl]cyclobutyl}pyridin-2-yl)benzamide], 14.1 nM.
Still for that read-out and setting: as for `N#Cc1cnc2[nH]c(C3(c4ccc(NC(=O)c5cccc(Cl)c5)nc4)CCC3)cc2c1` [Ex. 6, 3-Chloro-N-(5-(1-(5-cyano-1H-pyrrolo[2,3-b]pyridin-2-yl)cyclobutyl)pyridin-2-yl)benzamide], the figure is 633 nM.
In the case of `COC(=O)c1cccc2nc(C3(c4ccc(NC(=O)c5cccc(C#N)c5)nc4)CCC3)[nH]c12` [Ex. 35, Methyl 2-(1-(6-(3-cyanobenzamido)pyridin-3-yl)cyclobutyl)-1H-benzo[d]imidazole-7-carboxylate], the IC50 on IDO1 [1] stood at 383 nM.
On the same count and under the same terms, as for `N#Cc1cnc2nc(C3(c4ccc(NC(=O)c5cncc(F)c5)nc4)CCC3)[nH]c2c1` [Ex. 4, N-(5-(1-(6-cyano-1H-imidazo[4,5-b]pyridin-2-yl)cyclobutyl)pyridin-2-yl)-5-fluoronicotinamide], the figure is 144 nM.
Still for that read-out and setting: as for `N#Cc1cccc(C(=O)Nc2ccc(C(O)c3nc4cc(C(F)(F)F)cnc4[nH]3)cn2)c1` (stereo not drawn) [Ex. 42, 3-Cyano-N-(5-(hydroxy(6-(trifluoromethyl)-3H-imidazo[4,5-b]pyridin-2-yl)methyl)pyridin-2-yl)benzamide], the figure is 5910 nM; as for `COc1ccc2nc(C3(c4ccc(NC(=O)c5cccc(Cl)c5)nc4)CCC3)[nH]c2c1` [Ex. 14, 3-chloro-N-{5-[1-(6-methoxy-1H-benzimidazol-2-yl)cyclobutyl]pyridin-2-yl}benzamide], 5.62 nM; as for `O=C(Nc1ccc(C2(c3nc4c([nH]3)CCCC4)CCC2)cn1)c1cccc(Cl)c1` [Ex. 48, 3-Chloro-N-(5-(1-(4,5,6,7-tetrahydro-1H-benzo[d]imidazol-2-yl)cyclobutyl)pyridin-2-yl)benzamide], 99.7 nM.

For orientation: IC50 means the concentration at which inhibition is half-maximal.
